Test results reported in patent publication US20260335323A1, “CHIMERIC MOLECULE” (UCL Business Ltd, priority 2023, published 2026).

Legend:
BRD4 = molecular target: T1, BRD4 (Homo sapiens, UniProt O60885); experiment: Western blot, BRD4 levels in CAL51 cells; format: cell-based; conditions: 100 nM, 72 hours
T1 construct: Western blot (antibody CST #13440)
Description: (§1) All treatments with (+)-JQ1, NZ-147 or NZ-175 were performed at 100 nM concentration over 72 hours.
(§2) Cells were homogenised in protein lysis buffer consisting of 0.1 M Tris pH 8.0, 0.1 M NaCl, 5% glycerol, IGEPAL® CA-630 (#18896. Sigma-Aldrich) and 5 mM EDTA, 0.1 M N-ethyl maleimide (ThermoFisher, #23030) and protease inhibitor (Cell Signalling Technologies, #5871). Protein concentrations were determined using the BCA assay to ensure equal loading. […] The membranes were immunoblotted with primary antibodies, overnight at 4° C. […]
(§3) Membranes were then incubated with horseradish peroxidase (HRP)-conjugated secondary antibodies (Rabbit #7074 and Mouse #7076) purchased from Cell Signalling Technologies for 1 hour and the HRP signal was detected using EZ-ECL Enhanced Chemiluminescence Detection Kit for HRP (#20-500-500, Sartorius), and imaged with an Alliance Q9 Advanced (UVITec). […]
(§4) We generated a BRD4-ULKTAC (NZ-147) by conjugating (+)-JQ1 (BRD4-targeting moiety) to NZ-60 via a PEG linker (FIG. 8A). CAL51 cells (a triple negative breast cancer cell line) were treated with DMSO, (+)-JQ1 or NZ-147 at 100 nM for 72 hours then lysed and analysed by Western blot (FIG. 8B). […]

c-MYC [1] = experiment: Western blot, c-MYC levels in CAL51 cells; format: cell-based, human; conditions: 100 nM, 72 hours
Description: as §1, §2, §3, §4

MAX = experiment: Western blot, MAX levels in CAL51 cells; format: cell-based, human; conditions: 100 nM, 72 hours
Description: as §1, §2, §3, §4

c-MYC [2] = experiment: c-MYC immunofluorescence in hTERT-cMYC-ER expressing RPE1 cells; format: cell-based, human; conditions: 100 nM, 72 hours, with 4-OHT
Description: FIG. 9. (A) Schematic representation of hTERT-cMYC-ER expressing RPE1 cells. Treatment with 4-hydroxytamoxifen (4-OHT) translocates c-MYC-ER from the cytoplasm into the nucleus, simulating oncogenic c-MYC. (B) Immunofluorescence images of hTERT-cMYC-ER expressing RPE1 cells treated with DMSO, (+)-JQ1 or NZ-147 at 100 nM for 72 hours, each with or without 4-OHT.
RPE1-hTERT-c-MYC-ER cells were seeded in a 384 well PerkinElmer CellCarrier Ultra plate. In Example 8, cells were treated for 72 hours with DMSO, (+)-JQ1±4-OHT, or, NZ-147±4-OHT. In Example 9, cells were treated for 72 hours with 4-OHT, NZ-175, both, or neither. Thereafter, in both Examples 8 and 9, cells were fixed with 4% paraformaldehyde (PFA) in phosphate buffered saline (PBS) and blocked with 10% FBS and 0.1% Triton in PBS. Plates were incubated at 4° C. overnight, with 1:500 rabbit anti-c-MYC (D84C12) rabbit monoclonal antibody (#5605, Cell Signalling Technologies). The following day, plates were incubated with 1:1000 goat anti-rabbit Alexa 488 (ThermoFisher Scientific, #A-11008) and 1.62 μM Hoechst 33342 at room temperature for 1 hour before imaging. Excitation and emission spectra for each channel are as follows: Hoechst 33342=405/435-480 nm, Alexa 488=488/500-550 nm. Images were acquired at 40× and 63× magnification with water immersion lens.

H1299 cells [3] = experiment: Colony formation assay, H1299; format: cell-based, human
Description: A549 and H1299 cells were seeded in 12 well plates at approximately 100 cells per well. In Example 8, wells were treated with DMSO, (+)-JQ1 or NZ-147. In Example 9, cells were treated with DMSO or NZ-175. Colonies were allowed to form over 120 h. Cells were fixed and stained with crystal violet staining solution, prepared in 70% ethanol.
A colony formation assay was performed in A549 and H1299 cells, which were treated with DMSO, (+)-JQ1 or NZ-147 at 100 nM for 72 hours and stained with crystal violet (FIG. 10A).
A colony formation assay was performed in A549 and H1299 cells, which were treated with DMSO or NZ-175 at 100 nM for 72 hours and stained with crystal violet (FIG. 16A).

H1299 cells [4] = experiment: Cell viability assay (CellTiter Glo), H1299; format: cell-based, human; conditions: H1299, increasing concentrations
Description: A549 and H1299 cells were seeded in OptiPlate-384 well plates and treated with increasing concentrations of (+)-JQ1 or NZ-147 from 0 μM to 10 µM in Example 8 and with increasing concentrations of NZ-175 from 0 µM to 10 µM in Example 9. Cells were treated for 120 h before using the luciferase based CellTiter Glo assay (Promega) to measure cell viability.
Cell viability assay was performed in A549 and H1299 cells, which were treated with different concentrations of (+)-JQ1 or NZ-147 at 100 nM for 72 hours (FIG. 10B).
Cell viability assay was performed in A549 and H1299 cells, which were treated with different concentrations of NZ-147 at 100 nM for 72 hours (FIG. 16B).

levels of BRD4 (BRD4): reduced
SMILES: Cc1sc2c(c1C)C(c1ccc(Cl)cc1)=N[C@@H](CC(=O)NCCOCCOCCOCCn1cc(COc3ccc([C@@H](NC(=O)Nc4cc(C(F)(F)F)cc(C(F)(F)F)c4)C(=O)Nc4ccc(F)cc4F)cc3)nn1)c1nnc(C)n1-2 [NZ-147, (R)-2-(3-(3,5-bis(trifluoromethyl)phenyl)ureido)-2-(4-((1-(1-((S)-4-(4-chlorophenyl)-2,3,9-trimethyl-6H-thieno[3,2-f][1,2,4]triazolo[4,3-a][1,4]diazepin-6-yl)-2-oxo-6,9, 12-trioxa-3-azatetradecan-14-yl)-1H-1,2,3-triazol-4-yl)methoxy)phenyl)-N-(2,4-difluorophenyl) acetamide]
levels of c-MYC (c-MYC [1]): reduced | levels of MAX (MAX): reduced | nuclear c-MYC (c-MYC [2]): may show reduced nuclear c-MYC | colony formation (H1299 cells [3]; H1299, 100 nM, 72 hours): Fewest colonies formed | cell proliferation (H1299 cells [3]; c-MYC-amplified cell line H1299): reduced cell proliferation, exemplified further in the c-MYC-amplified cell line H1299 | percentage of live cells (H1299 cells [4]): dose-dependent decrease in the percentage of live cells
